Consider three compounds from patent EP0039037A1, “Pyrimidylthio-ureas, medicines containing them and their use” (Beiersdorf Aktiengesellschaft, priority 1980, dated 1981).

Structures are written as SMILES.

One experiment has as its system hyperlipidämische Mäuse. Kind of experiment: Lipid-lowering effect in hyperlipidaemic mice (method analogous to Turner, Screening Methods in Pharmacology, and Garattini et al.). The experiment is classed as in vivo. The method, then:
Die lipidsenkende Wirkung von N. (4,6-Dimethoxy-5-pyrimidyl)-thioharnstoff wurde an hyperliprdämischen Mausen analog einer Untersuchungsmethode, wie in "Screening Methods in Pharmacology", Robert A. Turner, 1965, Academic Press, New York and London, und Garattini et al, Arzneimittelforschung 9, 206 (1959), angegeben, untersucht. Die Verbindung wurde in einer Menge von 10 mg/kg peroral verabreicht. Es wurde eine Senkung des Cholesterinspiegels von 25 % und eine Senkung der Triglyceride von 27% erzielt.
(§1) Es wurde die lipid- und blutdrucksenkende Wirkung von N-(2,4-DimethoxY-5-pyrimidyl)-thioharnstoff untersucht. Als Yersuchsziere. wurden hyperlipidämische Mäuse und spontan hypertensive Ratten verwendet.
Bei den Mäusen wurde eine Verabreichungsdosis von 100 mg/ kg peroral verwendet, wobei eine Senkung des Cholesterinspiegels von 38 % und eine Senkung der Triglyceride von 49 % erreicht wurde.

The test system of experiment [1] is spontan hypertensive Ratten. Kind of experiment: Blood-pressure-lowering effect in spontaneously hypertensive rats. The experiment is classed as in vivo. Conditions: 30 mg/kg peroral. The method, then:
as §1
Bei den Ratten wurde eine Dosis von 30 mg/kg peroral verabreicht, wobei eine Blutdrucksenkung von 30 % erzielt wurde.
Es wurde die blutdrucksenkende Wirkung von N-(4,6-Dimethoxy-2-methyl-5-pyrimidyl)-thioharnstoff bei spontan hypertensiven Ratten untersucht. Den Ratten wurde die Verbindung in einer Dosis von 30 mg/kg peroral verabreicht. Damit wurde eine Blutdrucksenkung von 30 % erzielt.

In the case of `COc1ncc(NC(N)=S)c(OC)n1` [N-(2,4-Dimethoxy-5-pyrimidyl)-thioharnstoff], in the experiment on hyperlipidämische Mäuse (100 mg/kg peroral), the “Senkung der Triglyceride” value is 49% and the “Senkung des Cholesterinspiegels” value is recorded as 38%. The compound further registered a Blutdrucksenkung in experiment [1] of 30%.

Turning to `COc1ncnc(OC)c1NC(N)=S` [N-(4,6-Dimethoxy-5-pyrimidyl)-thioharnstoff], in the experiment on hyperlipidämische Mäuse (10 mg/kg peroral), the “Senkung der Triglyceride” value is listed as 27% and the “Senkung des Cholesterinspiegels” value is given as 25%.

In turn, `COc1nc(C)nc(OC)c1NC(N)=S` [N-(4,6-Dimethoxy-2-methyl-5-pyrimidyl)-thioharnstoff] gave a Blutdrucksenkung in experiment [1] of 30%.
